Values quoted from earlier work in US10751297B2, “Composition and method for treating skin conditions” (priority 2017, dated 2020).

Tests used:
HIV-1 = conditions: in vitro
[1] = tested on: respiratory syncytial virus; conditions: in vitro
[2] = tested on: acyclovir-resistant HSV strains
[3] = tested on: early viral protein synthesis
herpes simplex virus = conditions: in vitro
Friend virus = conditions: in vivo

In the case of `CCCCCCCCCCCCCCCCCCCCCCO` [docosanol], the “antiviral activity against HIV-1” value (HIV-1) is given as “potent antiviral activity”, the “antiviral activity against respiratory syncytial virus” value [1] is given as “potent antiviral activity” and the “effectiveness in acyclovir-resistant HSV strains” value [2] is given as “effective”. For the same compound, the “inhibition of early viral protein synthesis” value [3] was “more than 80%”, the “antiviral activity against herpes simplex virus” value (herpes simplex virus) was “potent antiviral activity” and the “concentration up to which not cytotoxic” value (cells) was “up to 300 mM”. The “antiviral activity against Friend virus” value (Friend virus) was “potent antiviral activity”.
